{"source": "paper PMC10507085", "about": "“Pharmacological inhibition of TBK1/IKKε blunts immunopathology in a murine model of SARS-CoV-2 infection” (Nature Communications, 2023)", "assay_in_all_cases": "biochemical", "design_in_all_cases": "KINOMEscan competition binding, DNA-tagged kinase against immobilised ligand, qPCR read-out", "key": {"PIM2": {"target": "PIM2 (Homo sapiens, UniProt Q9P1W9)"}, "ACVR2A": {"target": "ACVR2A (Homo sapiens, UniProt P27037)", "conditions": "read-out: Percent Control"}, "PRKAA1": {"target": "PRKAA1 (Homo sapiens, UniProt Q13131)", "conditions": "read-out: Percent Control"}, "RIPK2": {"target": "RIPK2 (Homo sapiens, UniProt O43353)", "conditions": "read-out: Percent Control"}, "ACVR2B": {"target": "ACVR2B (Homo sapiens, UniProt Q13705)", "conditions": "read-out: Percent Control"}, "TXK": {"target": "TXK (Homo sapiens, UniProt P42681)", "conditions": "read-out: Percent Control"}, "CDC2L2": {"target": "T1, CDC2L2 (Homo sapiens, UniProt Q9UQ88)", "T1 construct": "gene CDK11A", "conditions": "read-out: Percent Control"}, "BRSK1": {"target": "BRSK1 (Homo sapiens, UniProt Q8TDC3)", "sequence (Q8TDC3 whole entry)": "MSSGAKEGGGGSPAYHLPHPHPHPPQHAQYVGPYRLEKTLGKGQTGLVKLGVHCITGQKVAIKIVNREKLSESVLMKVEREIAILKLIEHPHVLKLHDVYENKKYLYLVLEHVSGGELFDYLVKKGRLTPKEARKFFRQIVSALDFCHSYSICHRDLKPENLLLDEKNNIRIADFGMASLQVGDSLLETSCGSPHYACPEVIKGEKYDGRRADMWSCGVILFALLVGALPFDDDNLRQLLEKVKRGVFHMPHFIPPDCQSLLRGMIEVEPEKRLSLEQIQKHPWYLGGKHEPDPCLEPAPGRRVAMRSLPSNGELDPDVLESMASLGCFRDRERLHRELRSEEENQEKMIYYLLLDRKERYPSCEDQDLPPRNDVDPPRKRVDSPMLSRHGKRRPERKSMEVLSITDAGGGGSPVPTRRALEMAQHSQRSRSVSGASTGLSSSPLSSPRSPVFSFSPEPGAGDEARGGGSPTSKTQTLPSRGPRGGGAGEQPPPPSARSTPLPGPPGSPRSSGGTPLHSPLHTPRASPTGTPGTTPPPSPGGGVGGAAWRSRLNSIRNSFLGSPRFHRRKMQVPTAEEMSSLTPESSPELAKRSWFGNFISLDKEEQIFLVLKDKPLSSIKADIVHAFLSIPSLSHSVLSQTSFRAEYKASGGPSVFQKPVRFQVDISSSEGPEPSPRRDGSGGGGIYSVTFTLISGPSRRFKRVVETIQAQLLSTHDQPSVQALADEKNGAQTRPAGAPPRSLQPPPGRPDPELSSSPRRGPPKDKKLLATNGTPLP", "conditions": "read-out: Percent Control"}, "EPHB2": {"target": "EPHB2 (Homo sapiens, UniProt P29323)", "conditions": "read-out: Percent Control"}, "YES1": {"target": "YES1 (Homo sapiens, UniProt P07947)", "conditions": "read-out: Percent Control"}, "CHEK2": {"target": "CHEK2 (Homo sapiens, UniProt O96017)", "sequence (O96017 whole entry)": "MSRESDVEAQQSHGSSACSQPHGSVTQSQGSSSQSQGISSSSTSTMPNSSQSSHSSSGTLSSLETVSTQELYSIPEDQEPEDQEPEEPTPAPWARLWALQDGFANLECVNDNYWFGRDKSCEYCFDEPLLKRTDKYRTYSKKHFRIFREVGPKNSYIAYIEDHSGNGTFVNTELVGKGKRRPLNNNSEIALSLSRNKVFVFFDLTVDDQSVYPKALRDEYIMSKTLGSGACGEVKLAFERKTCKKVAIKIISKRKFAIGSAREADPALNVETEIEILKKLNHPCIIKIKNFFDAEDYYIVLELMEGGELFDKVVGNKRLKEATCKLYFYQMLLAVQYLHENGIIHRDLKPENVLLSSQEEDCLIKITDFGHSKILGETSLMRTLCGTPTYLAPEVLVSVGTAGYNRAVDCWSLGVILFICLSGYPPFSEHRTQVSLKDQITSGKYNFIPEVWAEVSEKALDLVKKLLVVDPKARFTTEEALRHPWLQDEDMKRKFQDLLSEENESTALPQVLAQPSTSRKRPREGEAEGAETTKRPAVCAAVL", "conditions": "read-out: Percent Control"}, "HIPK4": {"target": "HIPK4 (Homo sapiens, UniProt Q8NE63)", "sequence (Q8NE63 whole entry)": "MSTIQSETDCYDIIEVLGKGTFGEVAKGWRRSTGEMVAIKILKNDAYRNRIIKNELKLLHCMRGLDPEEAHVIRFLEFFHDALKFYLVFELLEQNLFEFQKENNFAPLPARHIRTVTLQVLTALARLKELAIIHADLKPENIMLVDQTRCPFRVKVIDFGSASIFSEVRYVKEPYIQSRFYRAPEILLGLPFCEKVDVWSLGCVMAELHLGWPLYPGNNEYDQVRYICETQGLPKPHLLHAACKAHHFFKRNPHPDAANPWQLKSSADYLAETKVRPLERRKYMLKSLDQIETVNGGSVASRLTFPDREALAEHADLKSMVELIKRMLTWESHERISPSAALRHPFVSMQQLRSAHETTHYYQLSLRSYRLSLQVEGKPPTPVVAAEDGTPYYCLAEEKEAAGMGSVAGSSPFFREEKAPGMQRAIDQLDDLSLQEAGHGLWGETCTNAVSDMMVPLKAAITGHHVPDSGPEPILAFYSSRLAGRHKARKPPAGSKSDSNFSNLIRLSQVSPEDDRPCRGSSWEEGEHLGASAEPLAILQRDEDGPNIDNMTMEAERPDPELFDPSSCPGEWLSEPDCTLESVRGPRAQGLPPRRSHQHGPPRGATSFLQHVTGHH", "conditions": "read-out: Percent Control"}, "TTK": {"target": "TTK (Homo sapiens, UniProt P33981)", "sequence (P33981 whole entry)": "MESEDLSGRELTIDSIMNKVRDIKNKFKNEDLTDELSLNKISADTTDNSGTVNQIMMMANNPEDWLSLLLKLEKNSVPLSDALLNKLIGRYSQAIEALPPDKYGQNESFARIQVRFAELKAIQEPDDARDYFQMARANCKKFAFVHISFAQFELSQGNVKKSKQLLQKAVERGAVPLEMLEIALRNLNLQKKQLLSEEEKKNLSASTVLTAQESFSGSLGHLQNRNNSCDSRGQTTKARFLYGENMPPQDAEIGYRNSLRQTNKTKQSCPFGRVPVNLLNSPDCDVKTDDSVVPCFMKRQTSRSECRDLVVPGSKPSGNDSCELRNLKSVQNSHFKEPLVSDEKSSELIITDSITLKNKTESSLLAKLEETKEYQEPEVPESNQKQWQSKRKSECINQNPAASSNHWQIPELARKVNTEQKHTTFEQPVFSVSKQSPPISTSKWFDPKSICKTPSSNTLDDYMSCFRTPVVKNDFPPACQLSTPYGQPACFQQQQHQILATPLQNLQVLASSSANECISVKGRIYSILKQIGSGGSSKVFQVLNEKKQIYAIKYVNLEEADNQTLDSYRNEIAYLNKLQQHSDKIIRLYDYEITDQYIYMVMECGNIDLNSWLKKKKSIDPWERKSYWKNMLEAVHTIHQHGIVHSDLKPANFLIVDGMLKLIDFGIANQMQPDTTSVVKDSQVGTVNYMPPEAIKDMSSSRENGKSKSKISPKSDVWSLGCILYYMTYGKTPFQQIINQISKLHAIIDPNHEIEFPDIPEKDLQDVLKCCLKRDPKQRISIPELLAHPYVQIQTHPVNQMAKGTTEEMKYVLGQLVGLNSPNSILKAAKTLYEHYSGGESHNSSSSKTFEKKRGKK", "conditions": "read-out: Percent Control"}, "HIPK1": {"target": "HIPK1 (Homo sapiens, UniProt Q86Z02)", "sequence (Q86Z02 whole entry)": "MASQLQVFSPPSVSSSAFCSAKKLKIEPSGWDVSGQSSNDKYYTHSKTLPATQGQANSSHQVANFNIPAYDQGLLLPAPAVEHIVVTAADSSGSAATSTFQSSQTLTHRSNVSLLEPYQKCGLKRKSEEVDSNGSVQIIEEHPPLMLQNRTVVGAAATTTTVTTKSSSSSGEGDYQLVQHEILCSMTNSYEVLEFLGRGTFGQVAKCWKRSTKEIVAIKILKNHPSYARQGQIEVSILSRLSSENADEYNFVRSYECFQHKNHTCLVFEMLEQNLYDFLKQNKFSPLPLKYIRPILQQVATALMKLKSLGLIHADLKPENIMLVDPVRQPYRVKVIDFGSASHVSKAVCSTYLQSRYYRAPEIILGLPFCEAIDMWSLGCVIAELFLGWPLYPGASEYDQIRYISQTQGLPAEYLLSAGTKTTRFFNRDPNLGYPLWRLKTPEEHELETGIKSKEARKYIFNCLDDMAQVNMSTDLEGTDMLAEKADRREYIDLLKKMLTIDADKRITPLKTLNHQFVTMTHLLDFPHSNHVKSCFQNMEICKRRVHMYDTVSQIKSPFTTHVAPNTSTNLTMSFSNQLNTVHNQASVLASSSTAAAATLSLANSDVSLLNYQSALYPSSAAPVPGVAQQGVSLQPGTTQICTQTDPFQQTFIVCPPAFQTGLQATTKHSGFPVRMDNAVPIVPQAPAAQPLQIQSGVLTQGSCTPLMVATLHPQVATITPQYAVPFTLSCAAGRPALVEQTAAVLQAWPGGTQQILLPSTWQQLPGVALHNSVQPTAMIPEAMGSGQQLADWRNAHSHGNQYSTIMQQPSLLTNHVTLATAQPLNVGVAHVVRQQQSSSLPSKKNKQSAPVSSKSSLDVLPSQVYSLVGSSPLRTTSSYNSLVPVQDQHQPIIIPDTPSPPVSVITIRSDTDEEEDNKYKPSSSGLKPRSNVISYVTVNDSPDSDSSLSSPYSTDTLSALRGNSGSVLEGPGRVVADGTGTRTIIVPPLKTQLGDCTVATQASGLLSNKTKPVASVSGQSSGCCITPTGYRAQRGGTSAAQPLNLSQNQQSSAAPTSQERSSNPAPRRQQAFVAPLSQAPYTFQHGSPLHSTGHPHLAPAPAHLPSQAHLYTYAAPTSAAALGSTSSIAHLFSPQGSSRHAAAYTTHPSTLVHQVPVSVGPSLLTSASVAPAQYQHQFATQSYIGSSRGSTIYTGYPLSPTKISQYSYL", "conditions": "read-out: Percent Control"}, "MAPK3": {"target": "MAPK3 (Homo sapiens, UniProt P27361)", "conditions": "read-out: Percent Control"}, "PHKG1": {"target": "PHKG1 (Homo sapiens, UniProt Q16816)", "conditions": "read-out: Percent Control"}, "STK10": {"target": "STK10 (Homo sapiens, UniProt O94804)", "sequence (O94804 whole entry)": "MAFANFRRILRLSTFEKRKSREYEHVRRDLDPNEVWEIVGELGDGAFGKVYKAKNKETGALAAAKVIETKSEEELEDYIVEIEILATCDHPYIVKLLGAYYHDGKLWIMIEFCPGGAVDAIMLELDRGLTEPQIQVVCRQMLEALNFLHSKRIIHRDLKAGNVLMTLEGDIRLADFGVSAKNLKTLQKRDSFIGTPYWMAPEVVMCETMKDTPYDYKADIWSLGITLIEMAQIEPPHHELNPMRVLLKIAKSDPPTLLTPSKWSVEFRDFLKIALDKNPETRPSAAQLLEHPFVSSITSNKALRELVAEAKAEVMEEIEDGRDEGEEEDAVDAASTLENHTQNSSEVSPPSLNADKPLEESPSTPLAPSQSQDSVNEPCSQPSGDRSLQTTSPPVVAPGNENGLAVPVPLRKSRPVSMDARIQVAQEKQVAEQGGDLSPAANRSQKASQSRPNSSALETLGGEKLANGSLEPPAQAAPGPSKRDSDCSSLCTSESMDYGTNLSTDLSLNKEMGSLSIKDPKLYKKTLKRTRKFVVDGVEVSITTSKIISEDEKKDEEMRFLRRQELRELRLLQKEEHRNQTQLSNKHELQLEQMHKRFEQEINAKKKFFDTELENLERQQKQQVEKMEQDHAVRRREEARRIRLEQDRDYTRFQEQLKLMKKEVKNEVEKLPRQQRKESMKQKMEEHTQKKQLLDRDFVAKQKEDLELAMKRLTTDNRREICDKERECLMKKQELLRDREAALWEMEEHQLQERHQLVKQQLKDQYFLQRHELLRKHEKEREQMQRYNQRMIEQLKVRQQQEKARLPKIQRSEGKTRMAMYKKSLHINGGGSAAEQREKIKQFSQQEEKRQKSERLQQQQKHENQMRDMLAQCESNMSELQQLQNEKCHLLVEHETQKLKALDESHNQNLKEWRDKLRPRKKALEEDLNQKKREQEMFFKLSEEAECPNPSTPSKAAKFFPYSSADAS", "conditions": "read-out: Percent Control"}, "HIPK2": {"target": "HIPK2 (Homo sapiens, UniProt Q9H2X6)", "conditions": "read-out: Percent Control"}, "CDK18": {"target": "CDK18 (Homo sapiens, UniProt Q07002)", "conditions": "read-out: Percent Control"}, "PFCDPK1(P.falciparum)": {"target": "T2, PFCDPK1(P.falciparum) (Plasmodium falciparum, UniProt P62344)", "T2 construct": "gene CDPK1", "conditions": "read-out: Percent Control"}}, "data": [{"compound": "Oc1ccc(C2=Cc3ccc(O)cc3OC2)cc1", "note": "[compound 1, idronoxil]", "values": [{"measurement": "Kd", "setting": "PIM2", "result": 2.3, "unit": "µM"}, {"measurement": "remaining binding at 10 µM", "setting": "ACVR2A", "result": 66, "unit": "%"}, {"measurement": "remaining binding at 10 µM", "setting": "PRKAA1", "result": 100, "unit": "%"}, {"measurement": "remaining binding at 10 µM", "setting": "RIPK2", "result": 81, "unit": "%"}, {"measurement": "remaining binding at 10 µM", "setting": "ACVR2B", "result": 53, "unit": "%"}, {"measurement": "remaining binding at 10 µM", "setting": "TXK", "result": 87, "unit": "%"}, {"measurement": "remaining binding at 10 µM", "setting": "CDC2L2", "result": 69, "unit": "%"}, {"measurement": "remaining binding at 10 µM", "setting": "BRSK1", "result": 76, "unit": "%"}, {"measurement": "remaining binding at 10 µM", "setting": "EPHB2", "result": 86, "unit": "%"}, {"measurement": "remaining binding at 10 µM", "setting": "YES1", "result": 68, "unit": "%"}, {"measurement": "remaining binding at 10 µM", "setting": "CHEK2", "result": 67, "unit": "%"}, {"measurement": "remaining binding at 10 µM", "setting": "HIPK4", "result": 75, "unit": "%"}, {"measurement": "remaining binding at 10 µM", "setting": "TTK", "result": 83, "unit": "%"}, {"measurement": "remaining binding at 10 µM", "setting": "HIPK1", "result": 65, "unit": "%"}, {"measurement": "remaining binding at 10 µM", "setting": "MAPK3", "result": 94, "unit": "%"}, {"measurement": "remaining binding at 10 µM", "setting": "PHKG1", "result": 57, "unit": "%"}, {"measurement": "remaining binding at 10 µM", "setting": "STK10", "result": 100, "unit": "%"}, {"measurement": "remaining binding at 10 µM", "setting": "HIPK2", "result": 47, "unit": "%"}, {"measurement": "remaining binding at 10 µM", "setting": "CDK18", "result": 71, "unit": "%"}, {"measurement": "remaining binding at 10 µM", "setting": "PFCDPK1(P.falciparum)", "result": 80, "unit": "%"}]}]}
